According to patent US20200405696A1, “INHIBITORS OF INDOLEAMINE 2,3-DIOXYGENASE AND/OR TRYPTOPHAN 2,3-DIOXYGENASE” (IDORSIA PHARMACEUTICALS LTD, priority 2018, published 2020):

Assays:
[1] = molecular target: T1, Recombinant full-length human IDO1 (Homo sapiens, UniProt P14902); assay: IDO1 enzymatic assay (NFK quantified by LCMS); format: biochemical; conditions: 2 nM enzyme, 5 μM L-tryptophan, pH6.5, 30 minutes pre-incubation at RT; mean values when measured multiple times; read-out: hIDO activity (IC50 in nM)
T1 construct: Recombinant full-length human IDO1 with a N-terminal hexahistidine tag; hexahistidine (His6) (N); made in house; host or cells: E. coli
Summary of the method: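 IC50 comes from four-parameter logistic fits of duplicate data, with NFK quantified by LCMS and normalized to L-Trp-(indole-d5). Compound (0.5 nM–10 μM) was preincubated 30 min at RT with 2 nM E. coli-expressed IDO1 before a 30 min reaction with 5 μM tryptophan in pH 6.5 buffer containing ascorbate and methylene blue.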

[2] = molecular target: T2, Recombinant human TDO comprising amino acids 19-407 (Homo sapiens, UniProt P48775); assay: TDO2 enzymatic assay (NFK quantified by LCMS); format: biochemical; conditions: 15 nM enzyme, 200 μM L-tryptophan, pH7, 30 minutes pre-incubation at RT; mean values when measured multiple times; read-out: hTDO activity (IC50 in nM)
T2 construct: Recombinant human TDO comprising amino acids 19-407 with a N-terminal hexahistidine tag; hexahistidine (His6) (N); made in house; host or cells: E. coli
Summary of the method: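 NFK formed over 30 min at RT from 200 μM L-tryptophan was measured by LCMS, normalized to d5-tryptophan, after compound (0.5 nM–10 μM, duplicates, 0.6% DMSO) was preincubated 30 min with 15 nM recombinant His-tagged TDO 19-407 in phosphate buffer pH 7. IC50 from four-parameter logistic fit; repeats averaged.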

T1 sequence (P14902 whole entry): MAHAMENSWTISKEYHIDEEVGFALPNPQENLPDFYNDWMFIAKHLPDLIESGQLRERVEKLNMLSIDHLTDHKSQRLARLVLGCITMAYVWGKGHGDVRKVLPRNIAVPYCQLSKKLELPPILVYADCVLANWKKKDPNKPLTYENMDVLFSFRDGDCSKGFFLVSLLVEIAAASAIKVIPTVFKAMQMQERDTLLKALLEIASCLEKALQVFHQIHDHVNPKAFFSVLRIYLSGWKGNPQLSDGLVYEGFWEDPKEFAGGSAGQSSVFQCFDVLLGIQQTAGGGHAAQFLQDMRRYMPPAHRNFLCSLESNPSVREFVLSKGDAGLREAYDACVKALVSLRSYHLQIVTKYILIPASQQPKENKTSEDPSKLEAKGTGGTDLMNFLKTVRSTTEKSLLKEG
T2 sequence (P48775 19-406 limits assumed): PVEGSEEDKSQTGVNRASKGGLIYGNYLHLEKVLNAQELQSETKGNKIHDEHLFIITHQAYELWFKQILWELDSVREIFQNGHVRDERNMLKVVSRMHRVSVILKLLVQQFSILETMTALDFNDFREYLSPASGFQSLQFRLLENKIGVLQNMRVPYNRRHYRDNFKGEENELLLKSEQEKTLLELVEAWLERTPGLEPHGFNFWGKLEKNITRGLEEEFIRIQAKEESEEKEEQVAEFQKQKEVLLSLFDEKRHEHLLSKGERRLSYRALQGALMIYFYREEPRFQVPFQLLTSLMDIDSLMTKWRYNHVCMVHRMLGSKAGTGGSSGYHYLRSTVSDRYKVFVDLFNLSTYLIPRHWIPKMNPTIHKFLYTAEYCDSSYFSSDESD

Compound	IC50 [1] [nM]	IC50 [2] [nM]
O[C@@H](c1cn(-c2ccc(OCCC3(O)CC3)cc2)nn1)c1c(C2CC2)sc2cncn12 [Example 142a, 1-[2-(4-{4-[(R)-(2-Cyclopropyl-imidazo[5,1-b]thiazol-3-yl)-hydroxy-methyl]-[1,2,3]triazol-1-yl}-phenoxy)-ethyl]-cyclopropanol]	9.51	> 10200
Cc1sc2cncn2c1C(O)c1cn(-c2cccc(C#N)c2)nn1 (racemic) [Example 60, rac-3-{4-[Hydroxy-(2-methyl-imidazo[5,1-b]thiazol-3-yl)-methyl]-[1,2,3]triazol-1-yl}-benzonitrile]	294	> 10200
OC(c1cn(-c2cn[nH]c2)nn1)c1c(C2CC2)sc2cncn12 (racemic) [Example 41, rac-(2-Cyclopropyl-imidazo[5,1-b]thiazol-3-yl)-[1-(1H-pyrazol-4-yl)-1H-[1,2,3]triazol-4-yl]-methanol]	305	> 10200
Oc1ccc(-n2cc([C@H](O)c3c(C4CC4)sc4cncn34)nn2)cc1Cl [Example 148a, 2-Chloro-4-{4-[(R)-(2-cyclopropyl-imidazo[5,1-b]thiazol-3-yl)-hydroxy-methyl]-[1,2,3]triazol-1-yl}-phenol]	5.25	4440
OC(c1cn(-c2ccc3cc[nH]c3c2)nn1)c1c(C2CC2)sc2cncn12 (racemic) [Example 21, rac-(2-Cyclopropyl-imidazo[5,1-b]thiazol-3-yl)-[1-(1H-indol-6-yl)-1H-[1,2,3]triazol-4-yl]-methanol]	18.1	> 10200
COc1ccc(-n2cc(C(O)c3c([C@@H]4C[C@H]4F)sc4cncn34)nn2)cc1 (relative stereo) [Example 94, [2-(trans-2-Fluoro-cyclopropyl)-imidazo[5,1-b]thiazol-3-yl]-[1-(4-methoxy-phenyl)-1H-[1,2,3]triazol-4-yl]-methanol]	12.8	> 10200
COc1ncc(-n2cc(C(O)c3c(C4CC4)sc4cncn34)nn2)cc1C (racemic) [Example 71, rac-(2-Cyclopropyl-imidazo[5,1-b]thiazol-3-yl)-[1-(6-methoxy-5-methyl-pyridin-3-yl)-1H-[1,2,3]triazol-4-yl]-methanol]	55.9	> 10200
CCc1sc2cncn2c1C(O)c1cn(-c2ccc(NC(=O)C(C)(C)C)cc2)nn1 (racemic) [Example 120, rac-N-(4-{4-[(2-Ethyl-imidazo[5,1-b]thiazol-3-yl)-hydroxy-methyl]-[1,2,3]triazol-1-yl}-phenyl)-2,2-dimethyl-propionamide]	11	> 10200
OC(c1cn(-c2ccc(CN3CCOCC3)cc2)nn1)c1c(C2CC2)sc2cncn12 (racemic) [Example 37, rac-(2-Cyclopropyl-imidazo[5,1-b]thiazol-3-yl)-[1-(4-morpholin-4-ylmethyl-phenyl)-1H-[1,2,3]triazol-4-yl]-methanol]	175	> 10200

Results, then the compound that gave them:

IC50 [1] [nM]	IC50 [2] [nM]	Compound
66	> 10200	CCc1sc2cncn2c1C(O)c1cn(-c2ccc(S(=O)(=O)N(C)C)cc2)nn1 (racemic) [Example 241, rac-4-{4-[(2-Ethyl-imidazo[5,1-b]thiazol-3-yl)-hydroxy-methyl]-[1,2,3]triazol-1-yl}-N,N-dimethyl-benzenesulfonamide]
4.44	3840	CCc1sc2cncn2c1C(O)c1cn(-c2ccc(N)c(Cl)c2)nn1 (racemic) [Example 272, rac-[1-(4-Amino-3-chloro-phenyl)-1H-[1,2,3]triazol-4-yl]-(2-ethyl-imidazo[5,1-b]thiazol-3-yl)-methanol]
40.1	> 10200	CCc1cc(-n2cc(C(O)c3c(C4CC4)sc4cncn34)nn2)ccc1O (racemic) [Example 232, rac-4-{4-[(2-Cyclopropyl-imidazo[5,1-b]thiazol-3-yl)-hydroxy-methyl]-[1,2,3]triazol-1-yl}-2-ethyl-phenol]
14.2	6940	COc1ccc(-n2nnc(C(O)c3c(C)sc4cncn34)c2C)cc1 (racemic) [Example 255, rac-[1-(4-Methoxy-phenyl)-5-methyl-1H-[1,2,3]triazol-4-yl]-(2-methyl-imidazo[5,1-b]thiazol-3-yl)-methanol]
7.56	> 10200	COc1ccc(-n2cc(C(O)c3c(C4CC4)sc4cncn34)nn2)cc1Cl (racemic) [Example 289, rac-[1-(3-Chloro-4-methoxy-phenyl)-1H-[1,2,3]triazol-4-yl]-(2-cyclopropyl-imidazo[5,1-b]thiazol-3-yl)-methanol]
52.4	> 10200	COc1cc(C#N)cc(-n2cc(C(O)c3c(C4CC4)sc4cncn34)nn2)c1 (racemic) [Example 197, rac-3-{4-[(2-Cyclopropyl-imidazo[5,1-b]thiazol-3-yl)-hydroxy-methyl]-[1,2,3]triazol-1-yl}-5-methoxy-benzonitrile]
17.1	> 10200	CCc1sc2cncn2c1C(O)c1cn(-c2ccc(C(=O)NCCOC)cc2)nn1 (racemic) [Example 196, rac-4-{4-[(2-Ethyl-imidazo[5,1-b]thiazol-3-yl)-hydroxy-methyl]-[1,2,3]triazol-1-yl}-N-(2-methoxy-ethyl)-benzamide]
2.13	3680	CCc1sc2cncn2c1C(O)c1cn(-c2cc(F)c(OC)cc2F)nn1 (racemic) [Example 321, rac-[1-(2,5-Difluoro-4-methoxy-phenyl)-1H-[1,2,3]triazol-4-yl]-(2-ethyl-imidazo[5,1-b]thiazol-3-yl)-methanol]
43.2	6510	OC(c1cnn(-c2cccnc2)c1)c1c(C2CC2)sc2cncn12 (racemic) [Example 260, rac-(2-Cyclopropyl-imidazo[5,1-b]thiazol-3-yl)-(1-pyridin-3-yl-1H-pyrazol-4-yl)-methanol]
105	> 10200	CN(C)S(=O)(=O)c1ccc(-n2cc(C(O)c3c(C4CC4)sc4cncn34)nn2)cc1 (racemic) [Example 236, rac-4-{4-[(2-Cyclopropyl-imidazo[5,1-b]thiazol-3-yl)-hydroxy-methyl]-[1,2,3]triazol-1-yl}-N,N-dimethyl-benzenesulfonamide]
4.13	7010	COc1ccc(-n2nnc(C(O)c3c(C4CC4)sc4cncn34)c2C)cc1 (racemic) [Example 252, rac-(2-Cyclopropyl-imidazo[5,1-b]thiazol-3-yl)-[1-(4-methoxy-phenyl)-5-methyl-1H-[1,2,3]triazol-4-yl]-methanol]
53	> 10200	CCNS(=O)(=O)c1ccc(-n2cc(C(O)c3c(C4CC4)sc4cncn34)nn2)cc1 (racemic) [Example 239, rac-4-{4-[(2-Cyclopropyl-imidazo[5,1-b]thiazol-3-yl)-hydroxy-methyl]-[1,2,3]triazol-1-yl}-N-ethyl-benzenesulfonamide]
32.7	> 10200	COc1ccc(-n2nnc(C(O)c3c(C4CC4)sc4cncn34)c2F)cc1 (racemic) [Example 336, rac-(2-Cyclopropyl-imidazo[5,1-b]thiazol-3-yl)-[5-fluoro-1-(4-methoxy-phenyl)-1H-[1,2,3]triazol-4-yl]-methanol]
